# Source: US20230338310A1, “ANTI-VIRAL THERAPY” (priority 2020, published 2023)
# Entries after “also recorded” stand apart in the source; their conditions may differ.
# Key:
# hCoV 229E [1] = experiment: Immunoperoxidase assay (TCID50/pfu) and microscopic examination of hCoV 229E-infected A549 lung epithelial cells; assay type: cell-based, human coronavirus 229E (ATCC VR/740) in human A549 cells
# hCoV 229E [2] = experiment: Immunoperoxidase assay (TCID50/pfu) and microscopic examination of hCoV 229E-infected MRC-5 lung fibroblast cells; assay type: cell-based, human coronavirus 229E (ATCC VR/740) in human MRC-5 cells; conditions: MRC-5 cells
# IL-6 = IL-6 response of A549 airway epithelial cells infected with human coronavirus 229E (IL-6 Duoset immunoassay); assay type: cell-based; conditions: 10^3 dilution of stock HCoV 229E, single doses of 2 or 10 mg/L, 20 h at 37° C., one-way ANOVA and Tukey
# IFNβ = IFNβ response of A549 airway epithelial cells infected with human coronavirus 229E (IFN Beta Quantikine kit); assay type: cell-based; conditions: 10^3 dilution of stock HCoV 229E, single dose of 10 mg/L, 20 h at 37° C., none detected with virus alone
# glycine decarboxylase = molecular target: T1, glycine decarboxylase (Homo sapiens, UniProt P23378); experiment: Glycine utilisation by MRC-5 fibroblasts (fluorometric glycine assay of supernatants); assay type: cell-based; conditions: 10 mg/L cysteamine, 4 h, glycine 300 μM, insulin 10 mg/L
# T1 construct: endogenous in cells; host or cells: MRC-5 airway fibroblast cells
# T1 sequence (P23378 36-1020): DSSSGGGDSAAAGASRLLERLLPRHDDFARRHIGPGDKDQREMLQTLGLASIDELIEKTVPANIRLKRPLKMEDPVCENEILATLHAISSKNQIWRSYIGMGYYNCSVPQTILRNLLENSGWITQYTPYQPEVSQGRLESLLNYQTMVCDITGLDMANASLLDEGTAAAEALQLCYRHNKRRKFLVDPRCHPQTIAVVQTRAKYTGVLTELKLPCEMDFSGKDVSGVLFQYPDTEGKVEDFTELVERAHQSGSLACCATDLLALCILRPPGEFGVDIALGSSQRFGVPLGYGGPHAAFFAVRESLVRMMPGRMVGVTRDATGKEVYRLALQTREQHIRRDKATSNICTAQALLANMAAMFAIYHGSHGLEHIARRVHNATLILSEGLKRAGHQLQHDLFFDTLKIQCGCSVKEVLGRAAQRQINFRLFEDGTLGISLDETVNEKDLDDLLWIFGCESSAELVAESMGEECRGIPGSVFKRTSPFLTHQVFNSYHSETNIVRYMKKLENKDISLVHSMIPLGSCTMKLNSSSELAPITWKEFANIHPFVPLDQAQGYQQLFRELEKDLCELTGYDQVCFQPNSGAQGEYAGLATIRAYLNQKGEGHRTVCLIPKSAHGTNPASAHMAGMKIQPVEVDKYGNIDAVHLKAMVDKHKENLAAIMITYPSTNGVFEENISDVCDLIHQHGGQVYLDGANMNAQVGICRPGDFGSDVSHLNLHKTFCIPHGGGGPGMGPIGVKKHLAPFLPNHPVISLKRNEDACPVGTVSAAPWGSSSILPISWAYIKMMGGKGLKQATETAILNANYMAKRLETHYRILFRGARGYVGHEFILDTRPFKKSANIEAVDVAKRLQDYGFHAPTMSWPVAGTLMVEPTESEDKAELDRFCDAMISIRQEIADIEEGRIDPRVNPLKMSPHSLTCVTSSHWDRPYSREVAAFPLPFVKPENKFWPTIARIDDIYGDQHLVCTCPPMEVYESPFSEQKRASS
# Method: MRC-5 airway fibroblast cells were grown to 90% confluence in 2×12-well plates in EMEM+10% FBS. Cell culture media was replaced with:
# Plate 1 • 1. 3×1 ml media alone (EMEM+10% FBS) • 2. 3×1 ml media+insulin (10 mg/L) • 3. 3×1 ml media+added glycine (300 μM) • 4. 3×1 ml media+glycine+insulin
# As above, but with the addition of cysteamine to a final concentration of 10 mg/L Cells were then incubated at 37° C. and 5% C02 for 4 h. After incubation cell supernatants were harvested and transferred to labelled cryotubes and stored at −80° C. prior to assessment of glycine content. Insulin strongly stimulates glycine utilisation via glycine decarboxylase.
# The supernatants were thawed prior to determining the glycine concentration using the fluorometric glycine assay kit from Abcam (Ab211100).
# Manufacturer's instructions were followed and fluorometric assessment of glycine concentration in supernatants and standards was performed on the Biotek Synergy plate reader using 96-well black-walled plates at 535/587 nm (ex/em).
# hCoV 229E [3] = experiment: qPCR of hCoV 229E M protein gene copies in supernatant of infected A549 lung epithelial cells; assay type: cell-based, human coronavirus 229E in human A549 cells; conditions: 1 or 2 mg/L daily until 5th day, virus dilutions 10^-3 to 10^-5
# Method: The effect of treatment of coronavirus-infected pulmonary cells with cysteamine was studied using A549 (sample obtained from deposit, deposited under ATCC CCL-185) being a human lung epithelial cell line. Prior to viral challenge A549 cells were grown at 37° C. in 5% CO2 atmosphere in growth media F-12 with Kaighn's modification+10% FBS +pen-strep [F-12K]) to 70-80% confluency in F12-K in tissue-culture-treated 96-well plates. Immediately prior to viral challenge, cells were washed in Hanks balanced salt solution and media was replaced with 100 μl challenge medium per well (F-12K) which contained 1% serum. […] Quantitative (real-time) polymerase chain reaction (qPCR) was carried out using PrecisionPLUS qPCR Master Mix (PrimerDesign) and forward and reverse oligonucleotides (229E Sense & 229E Antisense) specific to the hCoV 229E M protein gene. Amplification was carried out using a MiniOpticon Real-Time PCR system (Bio-Rad) and data was analysed using Opticon Monitor software (Bio-Rad). Analysed samples had been exposed to 10^−3 (1.12×10^12 pfu/ml), 10^−4 (1.12×10^11 pfu/ml) and 10^−5 (1.12×10^10 pfu/ml) of hCoV 229E and conducted from quadruplicate technical replicates. The number of copies of the 229E M protein gene were determined from a standard curve containing known number of copies of the 229E M protein gene.
# [4] = test system: SARS-CoV-2 (SARS-CoV-2-CVR-Gla-1); experiment: SARS-CoV-2 cytopathology (CPE) assay in Vero E6 MESO cells; assay type: cell-based
# [5] = 14 days of cysteamine therapy adjunct to standard of care therapy; cited from earlier work
# [6] = 2 mg/L daily for 5 days, all virus concentrations of the study
compound,measurement,setting,value
"NCCS [cysteamine, 2-Aminoethanethiol]",pfu/ml in wells infected with hCoV 229E,hCoV 229E [1]; 1 mg/L cysteamine once a day for 5 days (untreated control 2.21 × 10^14/ml),3.94 × 10^15/ml pfu/ml
same,viral load (pfu/ml) relative to control without cysteamine,hCoV 229E [1]; 2 mg/L,can reduce viral load
same,pfu/ml in wells infected with hCoV 229E,hCoV 229E [1]; 2 mg/L cysteamine once a day for 5 days (untreated control 2.21 × 10^14/ml),7 × 10^9/ml pfu/ml
same,protection against infection with hCoV 229E,hCoV 229E [1]; [6],confer protection against infection
same,viral load (pfu/ml) relative to control without cysteamine,hCoV 229E [2]; 2 mg/L,can reduce viral load
same,protection against infection with hCoV 229E,hCoV 229E [2]; [6],confer protection against infection
same,cell monolayer integrity by microscopic examination,"hCoV 229E [2]; day 4, 2 mg/L cysteamine, untreated cells destroyed at 10^-4 to 10^-7 viral dilution",not seen at all in any of the cysteamine treated cells; also recorded: visible intact monolayer
same,IL-6 secretion compared with viral infection alone,IL-6,significantly reduced IL-6 secretion
same,IFNβ response,IFNβ,IFNβ is detected
same,insulin-driven utilisation of exogenous glycine,glycine decarboxylase,blocked
same,viral load as number of copies of the 229E M protein gene,hCoV 229E [3],reduces viral load
same,IC50,"[4]; Severe acute respiratory syndrome coronavirus 2, Vero C1008, 72 h, read-out: IC50 (CPE induced by SARS-CoV-2)",21.4 µg/mL
same,CPE (Cytopathology) induced by SARS-CoV-2,[4]; Vero E6 MESO cells,reduced the CPE
same,protection of the cell monolayer from SARS-CoV-2 CPE,"[4]; Vero E6 MESO cells, 128 mg/L, 72 hours post-infection and later",almost complete protection
same,protection of the cell monolayer from SARS-CoV-2 CPE,"[4]; Vero E6 MESO cells, therapeutically-achievable doses, 72 hours post-infection",modest
same,CRP levels versus SOCT alone,[5],significantly reduced
same,WBC levels versus SOCT alone,[5],significantly reduced
